According to patent publication US11173151B2, “Substituted triazole derivatives and uses thereof” (BAYER AKTIENGESELLSCHAFT, priority 2017, dated 2021):
Like-named read-outs stand apart in the source and are kept apart here.

Tests used:
human V1a receptor = target: T1, human V1a receptor (Homo sapiens, UniProt P37288); test: Cellular in vitro assay for determining vasopressin receptor activity, V1a receptor cell line (CHO, aequorin luminescence); format: cell-based; settings: for IC50: CHO cell line transfected with human V1a receptor, [Arg]-vasopressin at EC50 concentration, read-out: IC50 hV1a; for ratio IC50 hV2/hV1a: selectivity ratio IC50 hV2 / IC50 hV1a
T1 construct: expressed in transfected cells; host or cells: CHO K1 (ATCC), also stably transfected with a modified aequorin
In short: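 Antagonism is measured in stable CHO K1 transfectants coexpressing the Gαq-coupled receptor and a calcium-sensitive aequorin photoprotein. Agonist challenge uses [Arg]-vasopressin at EC50 after a 10-minute compound exposure; IC50 values come from the luminescence signal.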

human V2 receptor = target: T2, human V2 receptor (Homo sapiens, UniProt P30518); test: Cellular in vitro assay for determining vasopressin receptor activity, V2 receptor cell line (CHO, CRE-luciferase); format: cell-based; settings: CHO cell line transfected with human V2 receptor, [Arg8]-vasopressin at EC50 concentration, read-out: IC50 hV2
T2 construct: expressed in transfected cells; host or cells: CHO K1 (ATCC) expressing firefly luciferase under a CRE-responsive promoter
T2 sequence (P30518 whole entry): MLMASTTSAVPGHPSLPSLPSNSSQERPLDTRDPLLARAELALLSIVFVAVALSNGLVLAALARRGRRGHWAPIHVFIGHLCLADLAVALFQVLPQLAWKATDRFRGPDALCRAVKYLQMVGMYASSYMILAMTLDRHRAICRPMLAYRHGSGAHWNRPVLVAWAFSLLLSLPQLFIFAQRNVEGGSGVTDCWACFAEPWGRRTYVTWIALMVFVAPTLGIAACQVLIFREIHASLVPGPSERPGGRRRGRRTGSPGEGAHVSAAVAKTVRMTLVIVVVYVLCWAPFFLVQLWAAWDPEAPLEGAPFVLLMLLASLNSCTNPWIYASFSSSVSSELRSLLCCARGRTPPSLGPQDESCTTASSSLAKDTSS

T1 sequence (P37288 whole entry): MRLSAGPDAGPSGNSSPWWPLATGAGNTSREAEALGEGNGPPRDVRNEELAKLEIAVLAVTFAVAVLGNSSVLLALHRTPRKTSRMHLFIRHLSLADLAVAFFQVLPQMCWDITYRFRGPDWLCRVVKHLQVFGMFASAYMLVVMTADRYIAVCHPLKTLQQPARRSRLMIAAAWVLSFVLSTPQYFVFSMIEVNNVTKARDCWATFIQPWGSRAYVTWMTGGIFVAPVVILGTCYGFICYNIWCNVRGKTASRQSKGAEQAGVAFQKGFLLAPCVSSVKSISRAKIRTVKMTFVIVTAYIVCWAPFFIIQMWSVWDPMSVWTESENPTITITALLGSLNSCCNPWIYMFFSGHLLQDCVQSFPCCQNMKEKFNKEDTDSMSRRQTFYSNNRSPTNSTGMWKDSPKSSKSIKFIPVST

SMILES | IC50 (human V1a receptor) | ratio IC50 hV2/hV1a (human V1a receptor) | IC50 (human V2 receptor; 3 hours) | IC50 (human V2 receptor)
O=C(c1cccc(Cl)c1-n1cnc(Cn2nc(-c3ccc(Cl)cc3)n(C[C@H](O)C(F)(F)F)c2=O)n1)N1CCOC(C(F)(F)F)C1 (mixture of isomers) [Example 380, 5-(4-Chlorophenyl)-2-{[1-(2-chloro-6-{[2-(trifluoromethyl)morpholin-4-yl]carbonyl}phenyl)-1H-1,2,4-triazol-3-yl]methyl}-4-[(2S)-3,3,3-trifluoro-2-hydroxypropyl]-2,4-dihydro-3H-1,2,4-triazol-3-one] | 95.5 nM | 41.9 | 4000 nM | –
O=C(c1cccc(Cl)c1-n1cnc(Cn2nc(-c3ccc(Cl)cc3)n(C[C@H](O)C(F)(F)F)c2=O)n1)N1CCC(C(F)(F)F)C1 (mixture of isomers) [Example 386, 5-(4-Chlorophenyl)-2-{[1-(2-chloro-6-{[3-(trifluoromethyl)pyrrolidin-1-yl]carbonyl}phenyl)-1H-1,2,4-triazol-3-yl]methyl}-4-[(2S)-3,3,3-trifluoro-2-hydroxypropyl]-2,4-dihydro-3H-1,2,4-triazol-3-one] | 170 nM | 24.4 | 4150 nM | –
NC(CNC(=O)c1cccc(Cl)c1-n1cnc(Cn2nc(-c3ccc(Cl)cc3)n(C[C@H](O)C(F)(F)F)c2=O)n1)C(F)(F)F (mixture of isomers) [Example 390, N-[2-Amino-3,3,3-trifluoropropyl]-3-chloro-2-[3-({3-(4-chlorophenyl)-5-oxo-4-[(2S)-3,3,3-trifluoro-2-hydroxypropyl]-4,5-dihydro-1H-1,2,4-triazol-1-yl}methyl)-1H-1,2,4-triazol-1-yl]benzamide] | 69 nM | 7.7 | 530 nM | –
O=C(NC1CC1(F)F)c1cccc(Cl)c1-n1cnc(Cn2nc(-c3ccc(Cl)cc3)n(C[C@@H](O)C(F)(F)F)c2=O)n1 (mixture of isomers) [Example 395, 3-Chloro-2-[3-({3-(4-chlorophenyl)-5-oxo-4-[(2R)-3,3,3-trifluoro-2-hydroxypropyl]-4,5-dihydro-1H-1,2,4-triazol-1-yl}methyl)-1H-1,2,4-triazol-1-yl]-N-[2,2-difluorocyclopropyl]benzamide] | 82 nM | 62.8 | 5150 nM | –
NC(=O)C1CCCN1C(=O)c1cccc(Cl)c1-n1cnc(Cn2nc(-c3ccc(Cl)cc3)n(C[C@@H](O)C(F)(F)F)c2=O)n1 (mixture of isomers) [Example 400, 1-{3-Chloro-2-[3-({3-(4-chlorophenyl)-5-oxo-4-[(2R)-3,3,3-trifluoro-2-hydroxypropyl]-4,5-dihydro-1H-1,2,4-triazol-1-yl}methyl)-1H-1,2,4-triazol-1-yl]benzoyl}-prolinamide] | 570 nM | 56.1 | – | 32000 nM
O=C(NC1CC1F)c1cccc(Cl)c1-n1cnc(Cn2nc(-c3ccc(Cl)cc3)n(C[C@@H](O)C(F)(F)F)c2=O)n1 (mixture of isomers) [Example 406, 3-Chloro-2-[3-({3-(4-chlorophenyl)-5-oxo-4-[(2R)-3,3,3-trifluoro-2-hydroxypropyl]-4,5-dihydro-1H-1,2,4-triazol-1-yl}methyl)-1H-1,2,4-triazol-1-yl]-N-[2-fluorocyclopropyl]benzamide] | 26 nM | 390.4 | – | 10100 nM
NC(CNC(=O)c1cccc(Cl)c1-n1cnc(Cn2nc(-c3ccc(Cl)cc3)n(C[C@@H](O)C(F)(F)F)c2=O)n1)C(F)(F)F (mixture of isomers) [Example 408, N-[2-Amino-3,3,3-trifluoropropyl]-3-chloro-2-[3-({3-(4-chlorophenyl)-5-oxo-4-[(2R)-3,3,3-trifluoro-2-hydroxypropyl]-4,5-dihydro-1H-1,2,4-triazol-1-yl}methyl)-1H-1,2,4-triazol-1-yl]benzamide] | 400 nM | 21.3 | – | 8500 nM
O=C(NC1CC1(F)F)c1cccc(C(F)(F)F)c1-n1cnc(Cn2nc(-c3ccc(Cl)cc3)n(C[C@H](O)C(F)(F)F)c2=O)n1 (mixture of isomers) [Example 420, 2-[3-({3-(4-Chlorophenyl)-5-oxo-4-[(2S)-3,3,3-trifluoro-2-hydroxypropyl]-4,5-dihydro-1H-1,2,4-triazol-1-yl}methyl)-1H-1,2,4-triazol-1-yl]-N-[2,2-difluorocyclopropyl]-3-(trifluoromethyl)benzamide] | 58.5 nM | 19.7 | – | 1150 nM
NC(CNC(=O)c1ncccc1-n1cnc(Cn2nc(-c3ccc(Cl)cc3)n(C[C@H](O)C(F)(F)F)c2=O)n1)C(F)(F)F (mixture of isomers) [Example 429, N-[(2R)-2-Amino-3,3,3-trifluoropropyl]-3-[3-({3-(4-chlorophenyl)-5-oxo-4-[(2S)-3,3,3-trifluoro-2-hydroxypropyl]-4,5-dihydro-1H-1,2,4-triazol-1-yl}methyl)-1H-1,2,4-triazol-1-yl]pyridine-2-carboxamide] | 51 nM | 27.5 | – | 1400 nM
O=C(NCC(O)C(F)(F)F)c1ncccc1-n1cnc(Cn2nc(-c3ccc(Cl)cc3)n(C[C@H](O)C(F)(F)F)c2=O)n1 (mixture of isomers) [Example 430, 3-[3-({3-(4-Chlorophenyl)-5-oxo-4-[(2S)-3,3,3-trifluoro-2-hydroxypropyl]-4,5-dihydro-1H-1,2,4-triazol-1-yl}methyl)-1H-1,2,4-triazol-1-yl]-N-[3,3,3-trifluoro-2-hydroxypropyl]pyridine-2-carboxamide] | 44.5 nM | 16.0 | – | 710 nM
O=C(NC1CC1(F)F)c1ncccc1-n1cnc(Cn2nc(-c3ccc(Cl)cc3)n(C[C@H](O)C(F)(F)F)c2=O)n1 (mixture of isomers) [Example 436, 3-[3-({3-(4-Chlorophenyl)-5-oxo-4-[(2S)-3,3,3-trifluoro-2-hydroxypropyl]-4,5-dihydro-1H-1,2,4-triazol-1-yl}methyl)-1H-1,2,4-triazol-1-yl]-N-[2,2-difluorocyclopropyl]pyridine-2-carboxamide] | 25 nM | 33.0 | – | 825 nM
CC1CN(C(=O)c2ncccc2-n2cnc(Cn3nc(-c4ccc(Cl)cc4)n(C[C@H](O)C(F)(F)F)c3=O)n2)CCO1 (mixture of isomers) [Example 440, 5-(4-Chlorophenyl)-2-{[1-(2-{[2-methylmorpholin-4-yl]carbonyl}pyridin-3-yl)-1H-1,2,4-triazol-3-yl]methyl}-4-[(2S)-3,3,3-trifluoro-2-hydroxypropyl]-2,4-dihydro-3H-1,2,4-triazol-3-one] | 100 nM | 45.5 | – | 4550 nM
NC(=O)C1CCCN1C(=O)c1ncccc1-n1cnc(Cn2nc(-c3ccc(Cl)cc3)n(C[C@H](O)C(F)(F)F)c2=O)n1 (mixture of isomers) [Example 441, 1-({3-[3-({3-(4-Chlorophenyl)-5-oxo-4-[(2S)-3,3,3-trifluoro-2-hydroxypropyl]-4,5-dihydro-1H-1,2,4-triazol-1-yl}methyl)-1H-1,2,4-triazol-1-yl]pyridin-2-yl}carbonyl)-prolinamide] | 175 nM | 34.6 | – | 6050 nM
O=C(c1ncccc1-n1cnc(Cn2nc(-c3ccc(Cl)cc3)n(C[C@H](O)C(F)(F)F)c2=O)n1)N1CCC(O)(C(F)(F)F)C1 (mixture of isomers) [Example 442, 5-(4-Chlorophenyl)-2-{[1-(2-{[3-hydroxy-3-(trifluoromethyl)pyrrolidin-1-yl]carbonyl}pyridin-3-yl)-1H-1,2,4-triazol-3-yl]methyl}-4-[(2S)-3,3,3-trifluoro-2-hydroxypropyl]-2,4-dihydro-3H-1,2,4-triazol-3-one] | 190 nM | 24.5 | – | 4650 nM
O=C(c1ncccc1-n1cnc(Cn2nc(-c3ccc(Cl)cc3)n(C[C@H](O)C(F)(F)F)c2=O)n1)N1CCOC(C(F)(F)F)C1 (mixture of isomers) [Example 444, 5-(4-Chlorophenyl)-4-[(2S)-3,3,3-trifluoro-2-hydroxypropyl]-2-{[1-(2-{[2-(trifluoromethyl)morpholin-4-yl]carbonyl}pyridin-3-yl)-1H-1,2,4-triazol-3-yl]methyl}-2,4-dihydro-3H-1,2,4-triazol-3-one] | 120 nM | 65.4 | – | 7850 nM
O=C(c1ncccc1-n1cnc(Cn2nc(-c3ccc(Cl)cc3)n(C[C@H](O)C(F)(F)F)c2=O)n1)N1CCNC(C(F)(F)F)C1 (mixture of isomers) [Example 448, 5-(4-Chlorophenyl)-4-[(2S)-3,3,3-trifluoro-2-hydroxypropyl]-2-{[1-(2-{[3-(trifluoromethyl)piperazin-1-yl]carbonyl}pyridin-3-yl)-1H-1,2,4-triazol-3-yl]methyl}-2,4-dihydro-3H-1,2,4-triazol-3-one] | 165 nM | 16.4 | – | 2700 nM
O=C(c1ncccc1-n1cnc(Cn2nc(-c3ccc(Cl)cc3)n(C[C@H](O)C(F)(F)F)c2=O)n1)N1CCC(C(F)(F)F)C1 (mixture of isomers) [Example 449, 5-(4-Chlorophenyl)-4-[(2S)-3,3,3-trifluoro-2-hydroxypropyl]-2-{[1-(2-{[3-(trifluoromethyl)pyrrolidin-1-yl]carbonyl}pyridin-3-yl)-1H-1,2,4-triazol-3-yl]methyl}-2,4-dihydro-3H-1,2,4-triazol-3-one] | 200 nM | 16.8 | – | 3350 nM
